# Source: the supplement of paper PMC4862054
# What was measured:
# Experiment in all cases: normalised viability (% of control), CellTiter-Blue; higher = more viable cells (about 100 = DMSO control)
# Settings in all cases: incubation time: 72 h
# CAL-51 [1] = tested on: CAL-51
# Method: (§1)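 DSRT, CellTiter-Blue viability, 72 h incubation. Signal is normalised to DMSO and benzethonium chloride controls. Value is the normalised response at dose 6.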
# HDQ-P1 [2] = tested on: HDQ-P1
# Method: as §1
# CAL-148 [3] = tested on: CAL-148
# Method: as §1
# MDA-MB-453 [4] = tested on: MDA-MB-453
# Method: as §1
# DU-4475 [5] = tested on: DU-4475
# Method: as §1
# CAL-85-1 [6] = tested on: CAL-85-1
# Method: as §1
# CAL-51 [7] = tested on: CAL-51; remark: listed apart in the source
# Method: (§2)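 DSRT, CellTiter-Blue viability, 72 h incubation. Signal is normalised to DMSO and benzethonium chloride controls. Value is the normalised response at dose 8.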
# HDQ-P1 [8] = tested on: HDQ-P1; remark: listed apart in the source
# Method: as §2
# CAL-148 [9] = tested on: CAL-148; remark: listed apart in the source
# Method: as §2
# MDA-MB-453 [10] = tested on: MDA-MB-453; remark: listed apart in the source
# Method: as §2
# DU-4475 [11] = tested on: DU-4475; remark: listed apart in the source
# Method: as §2
# CAL-85-1 [12] = tested on: CAL-85-1; remark: listed apart in the source
# Method: as §2
# CAL-51 [13] = tested on: CAL-51; remark: listed apart in the source
# Method: (§3)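 DSRT, CellTiter-Blue viability, 72 h incubation. Signal is normalised to DMSO and benzethonium chloride controls. Value is the normalised response at dose 7.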
# HDQ-P1 [14] = tested on: HDQ-P1; remark: listed apart in the source
# Method: as §3
# CAL-148 [15] = tested on: CAL-148; remark: listed apart in the source
# Method: as §3
# MDA-MB-453 [16] = tested on: MDA-MB-453; remark: listed apart in the source
# Method: as §3
# DU-4475 [17] = tested on: DU-4475; remark: listed apart in the source
# Method: as §3
# CAL-85-1 [18] = tested on: CAL-85-1; remark: listed apart in the source
# Method: as §3
Compound,normalised viability (CAL-51 [1]),normalised viability (HDQ-P1 [2]),normalised viability (CAL-148 [3]),normalised viability (MDA-MB-453 [4]),normalised viability (DU-4475 [5]),normalised viability (CAL-85-1 [6]),normalised viability (CAL-51 [7]),normalised viability (HDQ-P1 [8]),normalised viability (CAL-148 [9]),normalised viability (MDA-MB-453 [10]),normalised viability (DU-4475 [11]),normalised viability (CAL-85-1 [12]),other results
Cc1[nH]c2ccccc2c1CCNCc1ccc(/C=C/C(=O)NO)cc1 [Panobinostat] (30 nM),68.8%,62.8%,21.1%,3.77%,27.3%,42.8%,,,,,,,
Cc1[nH]c2ccccc2c1CCNCc1ccc(/C=C/C(=O)NO)cc1 [Panobinostat] (300 nM),,,,,,,5.46%,23.1%,1.12%,1.93%,6.86%,7.2%,
COCC1(CO)C(=O)C2CCN1CC2 (stereo not given) [Prima-1 Met] (300 nM),91.2%,53.8%,94.5%,87.1%,116%,83.3%,,,,,,,
COCC1(CO)C(=O)C2CCN1CC2 (stereo not given) [Prima-1 Met] (3000 nM),,,,,,,97.2%,77.5%,89.1%,100%,101%,91.4%,
CNC(=O)c1cc(Oc2ccc(NC(=O)Nc3ccc(Cl)c(C(F)(F)F)c3)c(F)c2)ccn1 [Regorafenib] (300 nM),100%,89.8%,93.6%,95.6%,103%,85.3%,,,,,,,
CNC(=O)c1cc(Oc2ccc(NC(=O)Nc3ccc(Cl)c(C(F)(F)F)c3)c(F)c2)ccn1 [Regorafenib] (3000 nM),,,,,,,69.5%,88.4%,95.8%,53.1%,67.6%,86.6%,
CO[C@H]1C[C@@H]2CC[C@@H](C)[C@@](O)(O2)C(=O)C(=O)N2CCCC[C@H]2C(=O)O[C@H]([C@H](C)C[C@@H]2CC[C@@H](OP(C)(C)=O)[C@H](OC)C2)CC(=O)[C@H](C)/C=C(\C)[C@@H](O)[C@@H](OC)C(=O)[C@H](C)C[C@H](C)/C=C/C=C/C=C/1C [Ridaforolimus] (30 nM),37.9%,72.4%,40.8%,27.9%,54%,53.8%,,,,,,,
CO[C@H]1C[C@@H]2CC[C@@H](C)[C@@](O)(O2)C(=O)C(=O)N2CCCC[C@H]2C(=O)O[C@H]([C@H](C)C[C@@H]2CC[C@@H](OP(C)(C)=O)[C@H](OC)C2)CC(=O)[C@H](C)/C=C(\C)[C@@H](O)[C@@H](OC)C(=O)[C@H](C)C[C@H](C)/C=C/C=C/C=C/1C [Ridaforolimus] (300 nM),,,,,,,35.5%,65.8%,34.2%,28.5%,51.7%,55.4%,
c1ccc2c(CCNc3ccc(Nc4ccncc4)cc3)c[nH]c2c1 [Serdemetan] (300 nM),108%,57.9%,87.6%,109%,87.6%,87.7%,,,,,,,
c1ccc2c(CCNc3ccc(Nc4ccncc4)cc3)c[nH]c2c1 [Serdemetan] (3000 nM),,,,,,,88.5%,89%,67%,66.8%,79.5%,67.1%,
S=P(N1CC1)(N1CC1)N1CC1 [Thio-TEPA] (3000 nM),94.8%,90.4%,91.2%,95.5%,92.2%,96.8%,,,,,,,
S=P(N1CC1)(N1CC1)N1CC1 [Thio-TEPA] (10000 nM),,,,,,,,,,,,,normalised viability (CAL-51 [13]): 89.6%; normalised viability (HDQ-P1 [14]): 113%; normalised viability (CAL-148 [15]): 113%; normalised viability (MDA-MB-453 [16]): 121%; normalised viability (DU-4475 [17]): 96.6%; normalised viability (CAL-85-1 [18]): 91.3%
S=P(N1CC1)(N1CC1)N1CC1 [Thio-TEPA] (30000 nM),,,,,,,102%,108%,127%,97%,103%,97.8%,
CN(C)CCOc1ccc(/C(=C(/CCCl)c2ccccc2)c2ccccc2)cc1 [Toremifene] (300 nM),104%,79.5%,102%,101%,99.7%,101%,,,,,,,
CN(C)CCOc1ccc(/C(=C(/CCCl)c2ccccc2)c2ccccc2)cc1 [Toremifene] (3000 nM),,,,,,,95.8%,113%,104%,99.7%,101%,109%,
CC(C)C[C@@H](C(=O)N[C@H](C(=O)OC1CCCC1)c1ccccc1)[C@H](O)C(=O)NO [Tosedostat] (300 nM),86.5%,81.5%,78.1%,51.8%,51.1%,92.8%,,,,,,,
CC(C)C[C@@H](C(=O)N[C@H](C(=O)OC1CCCC1)c1ccccc1)[C@H](O)C(=O)NO [Tosedostat] (3000 nM),,,,,,,75.3%,72.9%,56.5%,49.8%,48.1%,61.1%,
COc1cc2/c(=N/c3ccc(Br)cc3F)nc[nH]c2cc1OCC1CCN(C)CC1 [Vandetanib] (300 nM),89.6%,31.4%,90.7%,97.5%,101%,83.7%,,,,,,,
COc1cc2/c(=N/c3ccc(Br)cc3F)nc[nH]c2cc1OCC1CCN(C)CC1 [Vandetanib] (3000 nM),,,,,,,49.2%,27.5%,77%,72.3%,125%,50.5%,
COCC[n+]1c2c(n(Cc3cnccn3)c1C)C(=O)c1ccccc1C2=O [YM155] (300 nM),2.3%,-0.08%,1.6%,10.9%,10.8%,1.89%,,,,,,,
